Measurements from US20220389009A1, “SUBSTITUTED 1,6-NAPHTHYRIDINE INHIBITORS OF CDK5” (Goldfinch Bio, Inc., priority 2019, published 2022).
Like-named read-outs stand apart in the source and are kept apart here.

What was measured:
[1] = biological target: CDK2/CycA2 (Homo sapiens, UniProt P24941); test: CDK2 mobility shift assay (enzymatic activity of CDK2/CycA2); assay type: biochemical
Method in brief: (§1)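 Phosphorylation of 1.5 μM fluorescent peptide was read by microfluidic mobility shift and fitted to IC50 (4-parameter), normalized to no-compound and no-enzyme controls. CDK5/p25 ran at 0.154 nM with […] ATP for 60 min, using peptide 29. CDK2/CycA2 ran at 1.25 nM with 37 μM ATP for 120 min, using peptide 18. Both included a 30-min compound preincubation in pH 7.5 buffer.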

[2] = biological target: CDK5/p25 (Homo sapiens, UniProt Q00535); test: CDK5 mobility shift assay (enzymatic activity of CDK5/p25); assay type: biochemical; details: for CDK5/CDK2 specificity: fold more active against CDK5 than CDK2
Method in brief: as §1

[3] = 1.25 nM CDK2/CycA2, 37 μM ATP, FL Peptide 18, 120 min at room temperature, read-out: CDK2 IC50
[4] = 0.154 nM CDK5/p25, FL peptide 29, 60 min at room temperature, read-out: CDK5 IC50

Chain of CDK5/p25 (Q00535 whole entry): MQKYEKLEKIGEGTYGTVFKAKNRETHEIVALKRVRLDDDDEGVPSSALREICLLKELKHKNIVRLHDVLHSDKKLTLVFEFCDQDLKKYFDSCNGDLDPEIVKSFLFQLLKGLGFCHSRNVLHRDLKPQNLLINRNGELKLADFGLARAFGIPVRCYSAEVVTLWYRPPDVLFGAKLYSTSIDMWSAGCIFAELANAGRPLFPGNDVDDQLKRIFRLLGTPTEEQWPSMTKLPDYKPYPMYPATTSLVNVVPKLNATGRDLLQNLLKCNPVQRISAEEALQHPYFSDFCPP
Chain of CDK5/p25 (Q15078 99-307 partner limits assumed): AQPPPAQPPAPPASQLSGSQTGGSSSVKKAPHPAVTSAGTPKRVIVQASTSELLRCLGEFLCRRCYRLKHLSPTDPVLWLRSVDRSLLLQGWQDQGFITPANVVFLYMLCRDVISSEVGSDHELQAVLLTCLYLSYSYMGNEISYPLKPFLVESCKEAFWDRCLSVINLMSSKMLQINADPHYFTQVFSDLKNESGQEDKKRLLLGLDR

Compound | IC50 [1, 3] [nM] | IC50 [2, 4] [nM] | CDK5/CDK2 specificity [2] | IC50 ([1]; CDK2 IC50) [nM] | IC50 ([2]; CDK5 IC50) [nM]
CN1CCC(S(=O)(=O)c2ccc3cnc(Nc4ccc(-n5cccn5)cc4F)cc3n2)CC1 [Compound 158, N-[2-fluoro-4-(pyrazol-1-yl)phenyl]-2-(1-methylpiperidin-4-ylsulfonyl)-1,6-naphthyridin-7-amine] | 100 to 1000 | < 10 | +++ (greater than 100-fold more active against CDK5 than CDK2) |  | 
O=S(=O)(c1ccc2cnc(Nc3ccc(-n4ccc(CO)n4)cc3F)cc2n1)C1CCN(CC(O)CO)CC1 (stereo not drawn) [Compound 253] | 100 to 1000 | 10 to 100 | ++ (greater than 10-fold and less than or equal to 100-fold more active against CDK5 than CDK2) |  | 
N#Cc1cccc(-c2ccc(Nc3cc4nc(C(O)C5CCN(CCO)CC5)ccc4cn3)c(F)c2)c1 (single isomer, unassigned) [Compound 250, 3′-fluoro-4′-[(2-[hydroxy[1-(2-hydroxyethyl)piperidin-4-yl]methyl]-1,6-naphthyridin-7-yl)amino]-[1,1′-biphenyl]-3-carbonitrile] | 100 to 1000 | < 10 | ++ (greater than 10-fold and less than or equal to 100-fold more active against CDK5 than CDK2) |  | 
CN1CCC(C(O)c2ccc3cnc(Nc4ccc(-n5cccn5)cc4F)cc3n2)CC1 (single isomer, unassigned) [Compound 176, (7-[[2-fluoro-4-(pyrazol-1-yl)phenyl]amino]-1,6-naphthyridin-2-yl) (1-methylpiperidin-4-yl)methanol] | 100 to 1000 | 100 to 1000 | + (10-fold or less more active against CDK5 than CDK2) |  | 
CN1CCC(C(C)(O)c2ccc3cnc(Nc4ccc(-c5ccc(=O)[nH]c5)cc4F)cc3n2)CC1 (stereo not drawn) [Compound 383] | 10 to 100 | < 10 | ++ (greater than 10-fold and less than or equal to 100-fold more active against CDK5 than CDK2) |  | 
CN1CCC(S(=O)(=O)c2ccc3cnc(Nc4cccc(CN5CCOCC5)c4)cc3n2)CC1 [Compound 276] | 100 to 1000 | < 10 | ++ (greater than 10-fold and less than or equal to 100-fold more active against CDK5 than CDK2) |  | 
COC(c1ccc2cnc(Nc3ccc(-n4cccn4)cc3F)cc2n1)C1CCN(C)CC1 (single isomer, unassigned) [Compound 387, N-[2-fluoro-4-(pyrazol-1-yl)phenyl]-2-[methoxy(1-methylpiperidin-4-yl)methyl]-1,6-naphthyridin-7-amine] | > 1000 | 100 to 1000 | ++ (greater than 10-fold and less than or equal to 100-fold more active against CDK5 than CDK2) |  | 
CN1CCC(S(=O)(=O)c2ccc3cnc(Nc4ccc(N5CCN(C)CC5)cc4)cc3n2)CC1 [Compound 270] | 100 to 1000 | < 10 | ++ (greater than 10-fold and less than or equal to 100-fold more active against CDK5 than CDK2) |  | 
CN1CCC(C(C)(O)c2ccc3cnc(Nc4ccc(-c5ccc(C#N)cn5)cc4F)cc3n2)CC1 (stereo not drawn) [Compound 356] | 10 to 100 | < 10 | ++ (greater than 10-fold and less than or equal to 100-fold more active against CDK5 than CDK2) |  | 
O=C(O)CN(c1ccc2cnc(Nc3ccc(-n4ccc(CO)n4)cc3F)cc2n1)C1CCNCC1 [Compound 101, [[7-([2-fluoro-4-[3-(hydroxymethyl)pyrazol-1-yl]phenyl]amino)-1,6-naphthyridin-2-yl](piperidin-4-yl)amino]acetic acid] |  |  | ++ (greater than 10-fold and less than or equal to 100-fold more active against CDK5 than CDK2) | > 1000 | 10 to 100
CN1CCC(S(=O)(=O)c2ccc3cnc(Nc4cccc(N5CCOCC5)c4)cc3n2)CC1 [Compound 273] | 100 to 1000 | < 10 | +++ (greater than 100-fold more active against CDK5 than CDK2) |  | 
OCCN(c1ccc2cnc(Nc3ccc(-n4nccc4CO)cc3F)cc2n1)C1CCNCC1 [Compound 103, 2-[[7-([2-fluoro-4-[5-(hydroxymethyl)pyrazol-1-yl]phenyl]amino)-1,6-naphthyridin-2-yl](piperidin-4-yl)amino]ethanol] | 100 to 1000 | 10 to 100 | ++ (greater than 10-fold and less than or equal to 100-fold more active against CDK5 than CDK2) |  | 
CN1CCC(S(=O)(=O)c2ccc3cnc(Nc4ccc(N5CCC(O)CC5)cc4)cc3n2)CC1 [Compound 304] | 100 to 1000 | < 10 | ++ (greater than 10-fold and less than or equal to 100-fold more active against CDK5 than CDK2) |  | 
OCCN1CCC(C(O)c2ccc3cnc(Nc4ccc(-n5ccc(CO)n5)cc4F)cc3n2)CC1 (single isomer, unassigned) [Compound 252, 2-(4-[[7-([2-fluoro-4-[3-(hydroxymethyl)pyrazol-1-yl]phenyl]amino)-1,6-naphthyridin-2-yl](hydroxy)methyl]piperidin-1-yl)ethanol] | 100 to 1000 | < 10 | +++ (greater than 100-fold more active against CDK5 than CDK2) |  | 
COC(=O)c1ccn(-c2ccc(Nc3cc4nc(S(=O)(=O)C5CCN(C)CC5)ccc4cn3)c(F)c2)n1 [Compound 290] | 100 to 1000 | < 10 | +++ (greater than 100-fold more active against CDK5 than CDK2) |  | 
O=S(=O)(c1ccc2cnc(Nc3ccc(-c4cccnc4)cc3F)cc2n1)C1CCN(CC2COC2)CC1 [Compound 323] | 100 to 1000 | < 10 | +++ (greater than 100-fold more active against CDK5 than CDK2) |  | 
CN(C)Cc1cccc(Nc2cc3nc(S(=O)(=O)C4CCN(C)CC4)ccc3cn2)c1 [Compound 280] | 100 to 1000 | 10 to 100 | + (10-fold or less more active against CDK5 than CDK2) |  | 
Cc1cc(C)cc(Nc2cc3nc(S(=O)(=O)C4CCN(C)CC4)ccc3cn2)c1 [Compound 260] | 100 to 1000 | < 10 | +++ (greater than 100-fold more active against CDK5 than CDK2) |  | 
C=C(c1ccc2cnc(Nc3ccc(-n4ccc(CO)n4)cc3F)cc2n1)C1CCNCC1 [Compound 139, [1-[3-fluoro-4-([2-[1-(piperidin-4-yl)ethenyl]-1,6-naphthyridin-7-yl]amino)phenyl]pyrazol-3-yl]methanol] | 100 to 1000 | < 10 | +++ (greater than 100-fold more active against CDK5 than CDK2) |  | 
CN1CCC(S(=O)(=O)c2ccc3cnc(Nc4ccc(-c5ccc(F)cc5)cc4F)cc3n2)CC1 [Compound 183, N-{3,4′-difluoro-[1,1′-biphenyl]-4-yl}-2-(1-methylpiperidin-4-ylsulfonyl)-1,6-naphthyridin-7-amine] | > 1000 | < 10 | +++ (greater than 100-fold more active against CDK5 than CDK2) |  | 
Fc1cc(-n2cccn2)ccc1Nc1cc2nc(SC3CCNCC3)ccc2cn1 [Compound 107, N-[2-fluoro-4-(pyrazol-1-yl)phenyl]-2-(piperidin-4-ylsulfanyl)-1,6-naphthyridin-7-amine] | 10 to 100 | < 10 | ++ (greater than 10-fold and less than or equal to 100-fold more active against CDK5 than CDK2) |  | 
CN1CCC(C2(c3ccc4cnc(Nc5ccc(-n6cccn6)cc5F)cc4n3)CCO2)CC1 (stereo not drawn) [Compound 365, N-(2-fluoro-4-(1H-pyrazol-1-yl)phenyl)-2-(2-(1-methylpiperidin-4-yl)oxetan-2-yl)-1,6-naphthyridin-7-amine] | 100 to 1000 | 10 to 100 | ++ (greater than 10-fold and less than or equal to 100-fold more active against CDK5 than CDK2) |  | 
CN1CCC(/C(=N\O)c2ccc3cnc(Nc4ccc(-n5cccn5)cc4F)cc3n2)CC1 [Compound 375] | 10 to 100 | < 10 | ++ (greater than 10-fold and less than or equal to 100-fold more active against CDK5 than CDK2) |  | 
Cc1ccc(Nc2cc3nc(S(=O)(=O)C4CCN(C)CC4)ccc3cn2)c(F)c1 [Compound 294] | 100 to 1000 | < 10 | +++ (greater than 100-fold more active against CDK5 than CDK2) |  | 
O=S(=O)(c1ccc2cnc(Nc3ccc(-n4ccc(CO)n4)cc3F)cc2n1)N1CCNCC1 [Compound 208, [1-(3-fluoro-4-[[2-(piperazine-1-sulfonyl)-1,6-naphthyridin-7-yl]amino]phenyl)pyrazol-3-yl]methanol] | 100 to 1000 | 10 to 100 | + (10-fold or less more active against CDK5 than CDK2) |  | 
COc1cc(-c2ccc(Nc3cc4nc(C(C)C5CCN(C)CC5)ccc4cn3)c(F)c2)ccn1 (stereo not drawn) [Compound 333] | 100 to 1000 | < 10 | +++ (greater than 100-fold more active against CDK5 than CDK2) |  | 
CN1CCC(S(=O)(=O)c2ccc3cnc(Nc4ccc(-c5cncnc5)cc4F)cc3n2)CC1 [Compound 293] | 100 to 1000 | < 10 | +++ (greater than 100-fold more active against CDK5 than CDK2) |  | 
COc1cc(-c2ccc(Nc3cc4nc(S(=O)(=O)C5CCN(CC6COC6)CC5)ccc4cn3)c(F)c2)ccn1 [Compound 328] | > 1000 | < 10 | +++ (greater than 100-fold more active against CDK5 than CDK2) |  | 
CN1CCC(C(C)(O)c2ccc3cnc(Nc4ccc(-n5ccc(C#N)n5)cc4F)cc3n2)CC1 (stereo not drawn) [Compound 371] | 100 to 1000 | < 10 | ++ (greater than 10-fold and less than or equal to 100-fold more active against CDK5 than CDK2) |  | 
